The source of these data is US8193377B2, “(−)-epigallocatechin gallate derivatives for inhibiting proteasome” (The Hong Kong Polytechnic University, priority 2004, dated 2012).

The target of assay [1] is T1, purified rabbit 20s proteasome (Oryctolagus cuniculus, UniProt G1T4Q9).
T1 construct: purchased Boston Biochem (Cambridge, Mass.)
T1 sequence (G1T4Q9 1-263): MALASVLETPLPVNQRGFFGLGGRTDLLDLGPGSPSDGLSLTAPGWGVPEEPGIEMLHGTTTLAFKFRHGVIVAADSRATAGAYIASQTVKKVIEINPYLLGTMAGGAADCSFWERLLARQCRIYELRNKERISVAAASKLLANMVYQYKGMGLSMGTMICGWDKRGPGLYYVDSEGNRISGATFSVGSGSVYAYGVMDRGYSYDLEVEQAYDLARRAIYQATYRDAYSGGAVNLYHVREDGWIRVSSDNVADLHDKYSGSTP
Kind of assay: Inhibition of chymotrypsin-like activity of purified 20S proteasome. Format: biochemical. How it is done: Measurement of the chyrnotrypsin-like activity of the 20s proteasome was performed by incubating 0.5 μg of purified rabbit 20s proteasome with 40 μM fluorogenic peptide substrate, Suc-Leu-Leu-Val-Tyr-AMC, with or without various concentrations of natural and synthetic tea polyphenols as described previously (Nam S et. al.).
In order to test this hypothesis, proteasome activity was tested both in vitro and in intact Jurkat T cells with either 1 or (−)-EGCG (as a positive control). First, 1 and commercial (−)-EGCG were dissolved in DMSO and their effects on the chymotrypsin-like activity of purified 20S proteasomes were measured. […] In contrast, (−)-EGCG at 10 μM inhibited 80-90% of the proteasomal chymotrypsin-like activity. Therefore, as predicted, 1 outside of a cellular system is not a proteasome inhibitor.
Up to 25 μM of all protected and unprotected compounds were incubated with a purified 20s proteasome and a fluorogenic substrate for chyrnotrypsin activity for 30 min. The half-maximal inhibitory concentration or IC50 was then determined. […] This is consistent with the results above.

For assay [2], the system named is ubiquitinated proteins, Bax, p27, IκBα in Jurkat T cells. Kind of assay: Western blot for ubiquitinated proteins and proteasome targets (Bax, p27, IκBα) in Jurkat T cells. Format: cell-based, human. The settings on record: 25 μM, up to 8 h. The method, then:
Whole cells extracts were prepared as described previously (An B, Goldfarb R H, Siman R, Dou Q P. Novel dipeptidyl proteasome inhibitors overcome Bc1-2 protective function and selectively accumulate the cyclin-dependent kinase inhibitor p27 and induce apoptosis in transformed, but not normal, human fibroblasts. Cell Death Differ 1998; 5: 1062-75.). Analysis of Bax, IKBa, p27, PAW, and ubiquitinated protein expression were performed using monoclonal or polyclonal antibodies according to previously reported protocols (An B et. al.).
To determine what effects the synthetic tea analogs had on the proteasome in vivo, Jurkat cells were treated with 25 μM of each synthetic compound for either 4 or 24 h, with (−)-EGCG as a control (FIGS. 9A and 9B). […] This is consistent with the idea that protected analogs are potent inhibitors of the proteasome at an earlier time point and that after 24 h of treatment the ubiquitinated proteins are being depleted by deubiquitinating enzymes. […] The putative ubiquitinated IκBα band is still found in cells treated with 2a, 3a, and 4a (FIG. 9B, Lanes 9, 5, 7). The presumed ubiquinated IκBα band is now absent in the 24 h treatment, possibly due to deubiquitination (FIG. 9B). Actin was used as a loading control in this experiment.
The pro-apoptotic protein Bax and the cyclin-dependent kinase inhibitor p27 are natural proteasome targets. If the peracetate-protected polyphenols inhibit the intact proteasome activity, we would expect accumulation of Bax and p27 in these cells. To test this idea, Jurkat T cells were treated with both protected and unprotected compounds and lysates were analyzed by Western blot using specific antibodies to Bax and p27 (FIG. 15). After 4 h of treatment, the peracetate-protected analogs 24* and 19*, but not their unprotected analogs, were able to increase accumulation of both Bax (by 3- and 2.5-fold, respectively) and p27 (6- and 11-fold, respectively) (FIG. 15A). After 24 h treatment, Bax levels were increased in cells treated with all of the peracetate-protected compounds (13-, 12-, 40- and 36-fold, respectively, by 24*, 19*, 21* and 23*).
For orientation: In western blotting, separated proteins are transferred to a membrane and probed.

The target in assay [3] is 20S prokaryotic proteasome (UniProt Q9P992). The conditions noted are these: Table 2, Reference a (Smith et al. 2004), cited from earlier work.
Sequence of 20S prokaryotic proteasome (Q9P992 whole entry): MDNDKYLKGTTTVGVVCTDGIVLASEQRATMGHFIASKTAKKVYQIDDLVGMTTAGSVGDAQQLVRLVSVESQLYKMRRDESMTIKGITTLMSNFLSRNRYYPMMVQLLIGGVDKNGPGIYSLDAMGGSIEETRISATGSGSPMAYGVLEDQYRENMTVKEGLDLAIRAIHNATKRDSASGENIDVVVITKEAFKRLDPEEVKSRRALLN
Assay [4] shares this target. Kind of assay: Table 2: effects of tea polyphenols on 20S prokaryotic proteasome activities. Format: biochemical. The conditions noted are these: Table 2, This work. The method, then:
To further examine the effects of B-ring —OH group deletion on proteasome-inhibitory and cell death-inducing abilities, we synthesized several novel EGCG analogs with eliminated —OH groups on the B-ring as well as their putative prodrugs, the peracetate-protected counterparts. By using a purified 20S proteasome and a chymotrypsin-like fluorogenic substrate, the proteasome-inhibitory effects of the following unprotected polyphenol analogs are determined: […]

Assay [5] addresses T2, proteasomal chymotrypsin-like activity in Jurkat T cells (Homo sapiens, UniProt P28074).
T2 construct: measurement of the proteasomal chymotrypsin-like activity in the prepared lysates; endogenous in cells; host or cells: Jurkat T cells (human leukemia)
T2 sequence (P28074 60-263): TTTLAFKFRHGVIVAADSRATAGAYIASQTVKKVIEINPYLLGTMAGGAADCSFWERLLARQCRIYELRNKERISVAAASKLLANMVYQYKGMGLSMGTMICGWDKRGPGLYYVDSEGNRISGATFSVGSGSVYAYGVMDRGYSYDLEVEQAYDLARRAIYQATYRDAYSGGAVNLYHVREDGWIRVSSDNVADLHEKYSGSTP
Kind of assay: Proteasomal chymotrypsin-like activity in intact Jurkat T cells / their lysates. Format: cell-based. The conditions noted are these: 25 μM, 4 and 24 h. The method, then:
VA-13 or WI-38 cells were grown in 24 well plates (2 ml/well) to 70-80% confluency, followed by 24 h treatment with […] (−)-EGCG, 2, or 2a. […] Suc-Leu-Leu-Val-Tyr-AMC substrate was then added for 2.5 h at 37° C. and the chyrnotrypsin-like activity was measured as described above. Alternatively, cells were treated with each compound at 25 μM for 4 or 24 h, and harvested and lysed. Suc-Leu-Leu-Val-Tyr-AMC (40 μM) was then incubated with the prepared cell lysates for 2.5 h and the chymotrypsin-like activity was measured as described above.
If 1 converts to (−)-EGCG inside the cells, proteasome inhibition in vivo should be detected. To examine this possibility, human Jurkat cells was treated with 25 μM of 1 or (−)-EGCG for 12 or 24 h, followed by measurement of proteasome activity by using a chymotrypsin-like specific fluorogenic substrate in intact cells (FIG. 6a) or Western blot for ubiquinated proteins (FIG. 6b). […] To analyze the intracellular level of polyubiquitinated proteins, cells were lysed after 12 hours incubation and subjected to Western blotting. […] It is possible that the amount of EGCG generated from 1, and thus its biological activity inside the cells depends on a combination of factors: the relative permeability of 1 into the cells, the amount of esterase enzymes and the amount of anti-oxidants that may be present in the cells at any time.
To determine whether the unprotected and protected polyphenol analogs could inhibit the proteasomal activity in intact cells, leukemia Jurkat T cells were treated with each compound at 25 μM for 4 and 24 h, followed by collection of cell pellets and measurement of the proteasomal chymotrypsin-like activity in the prepared lysates.

The next assay relates to VA-13 cells. Kind of assay: Immunostaining of apoptotic cells with anti-cleaved PARP-FITC. Format: cell-based, human. The settings on record: 25 μM, 24 h. How it is done:
Immunostaining of apoptotic cells was performed by addition of a FITC-conjugated polyclonal antibody that recognizes cleaved poly(ADP-ribose) polymerase (PARP) and visualized on an Axiovert 2 5 (Zeiss; Thornwood, N.Y.) microscope. Cells were grown to about 80% confluency in 60 mm dishes. VA-13 cells were then treated with VP-16, 2, or 2a (25 μM) for 24 h. Following treatment, both suspension and adhering cells were collected and washed twice in PBS pH 7.4. The cells were washed between all steps listed below and all washes are 1 min duration with PBS. Cells were then fixed in ice-cold 70% ethanol, permeabilized in 0.1% Triton-X-100 and blocked for 30 min in 1% bovine serum albumin (BSA) at room temperature. Incubation with the primary FITC-conjugated-p85/PARP antibody was for 30 min at 4° C. in the dark with mild shaking. Cell suspension was then transferred to glass slides in the presence of Vector Shield mounting medium with DAPI. Images were captured using AxioVision 4.1 and adjusted using Adobe Photoshop 6.0 software. Cell death was quantified by counting the number of apoptotic cells over the total number of cells in the same field. Data are mean of duplicate experiments ±SD.
It has been shown that proteasome inhibition can induce apoptosis in a wide variety of cancer cells, but not in normal, non-transformed cells (An B et al). Jurkat T cells are treated with 25 μM of each of the selected polyphenols and their protected analogs for 24 h to investigate their abilities to induce apoptotic cell death. […] The unprotected 2 induced much less apoptosis (21%), while 25 μM VP-16, used as a positive control, induced 92% apoptosis (FIGS. 10C and 10D). Counterstain with DAPI, which binds to the minor groove in A-T rich regions of DNA, was decreased drastically in apoptotic cells (FIG. 10C), consistent with DNA fragmentation in late stage apoptosis.

Setting [6] is: up to 25 μM, 30 min incubation, read-out: IC50.
Setting [7] is: Suc-Leu-Leu-Val-Tyr-AMC, 2 h incubation, Table 1, read-out: IC50 (μM), unprotected.

Structures are written as SMILES. Like-named read-outs stand apart in the source and are kept apart here.

In general, IC50 refers to the concentration needed to halve the response being measured. For the molecule `O=C(O[C@@H]1Cc2c(O)cc(O)cc2O[C@H]1c1cc(O)c(O)c(O)c1)c1ccc(O)cc1` (relative stereo) [Compound 3, (2S*,3R*)-trans-5,7-Bis(hydroxy)-2-[3,4,5-tris(hydroxy)phenyl]chroman-3-yl 4-(hydroxy)benzoate], the IC50 in assay [1] (setting [6]) is 14 to 15 µM.
In the case of `O=C(O[C@@H]1Cc2c(O)cc(O)cc2O[C@H]1c1cc(O)c(O)c(O)c1)c1cc(O)cc(O)c1` (relative stereo) [Compound 4, (2S*,3R*)-trans-5,7-Bis(hydroxy)-2-[3,4,5-tris(hydroxy)phenyl]chroman-3-yl 3,5-bis(hydroxy)benzoate], in assay [2], the “time course of ubiquitinated protein accumulation” value is “highest expression after 8 hours”. The concentration for half-maximal inhibition (IC50) in assay [1] (setting [6]) fell in the range of 14 to 15 µM.
With `O=C(OC1Cc2c(O)cc(O)cc2OC1c1ccc(O)c(O)c1)c1cc(O)c(O)c(O)c1` (single isomer, unassigned; (+)) [(+)-ECG], the half-maximal inhibitory concentration (IC50) in assay [3] (read-out: IC50) was 0.73 µM.
In the case of `O=C(OC1Cc2c(O)cc(O)cc2OC1c1ccc(O)c(O)c1)c1cc(O)c(O)c(O)c1` (single isomer, unassigned; (-)) [(−)-CG], the IC50 in assay [3] is 0.75 µM.
As for `O=C(O[C@H]1Cc2c(O)cc(O)c(Cc3ccccc3)c2O[C@H]1c1ccc(O)c(O)c1)c1cc(O)c(O)c(O)c1` [#1, (+)-(2S,3S)-5,7-dihydroxy-8-benzyl-2-[3,4-dihydroxy-phenyl]chroman-3-yl 3,4,5-trihydroxybenzoate], the IC50 in assay [4] is 0.39 µM.
`O=C(OC1Cc2c(O)cc(O)cc2OC1c1ccc(O)cc1)c1cc(O)c(O)c(O)c1` (centres unmarked) [#m]: half-maximal inhibition in assay [4] (IC50) required 4.56 µM.
Take `O=C(O[C@H]1Cc2c(O)cc(O)cc2O[C@@H]1c1ccc(O)c(O)c1)c1cc(O)c(O)c(O)c1` [(+)-CG, (+)-(2R,3S)-5,7-dihydroxy-2-(3,4-dihydroxyphenyl)chroman-3-yl 3,4,5-trihydroxybenzoate]: the 50% inhibitory concentration (IC50) in assay [3] was 0.73 µM.
`O=C(O[C@@H]1Cc2c(O)cc(O)cc2O[C@@H]1c1ccc(O)c(O)c1)c1cc(O)c(O)c(O)c1` [(−)-ECG, (−)-epicatechin-3-gallate]: the IC50 in assay [3] was 0.58 µM.
Regarding `O=C(O[C@@H]1Cc2c(O)cc(O)cc2O[C@@H]1c1ccc(O)cc1)c1ccc(O)cc1` [Compound 10, (−)-(2R,3R)-5,7-dihydroxy-2-(4-hydroxyphenyl)chroman-3-yl 4-hydroxybenzoate], the “proteasome inhibition in intact Jurkat T cells” value in assay [5] is given as “moderate potency”. Moreover, in assay [1] (setting [7]), the half-inhibitory concentration (IC50) amounted to 8.51 µM.
Turning to `O=C(O[C@H]1Cc2c(O)cc(O)cc2O[C@@H]1c1ccc(O)c(O)c1)c1ccc(O)cc1` [Compound 11, (+)-(2R,3S)-5,7-dihydroxy-2-(3,4-dihydroxyphenyl)chroman-3-yl 4-hydroxybenzoate], the IC50 in assay [1] (setting [7]) worked out at 7.7 µM.
Still for that read-out and setting: the figure for `O=C(O[C@@H]1Cc2c(O)cc(O)cc2O[C@@H]1c1ccc(O)c(O)c1)c1ccc(O)cc1` [Compound 12, (−)-(2R,3R)-5,7-dihydroxy-2-(3,4-dihydroxyphenyl)chroman-3-yl 4-hydroxybenzoate] is 5.99 µM.
`O=C(O[C@H]1Cc2c(O)cc(O)cc2O[C@H]1c1ccccc1)c1cc(O)c(O)c(O)c1` [Compound 15, (+)-(2S,3S)-5,7-dihydroxy-2-phenylchroman-3-yl 3,4,5-trihydroxybenzoate] came in with a 50% inhibitory concentration (IC50) in assay [4] of 4.56 µM. The “proteasome inhibition in intact Jurkat T cells” value in assay [5] was “moderate potency”.
`O=C(OC1Cc2c(O)cc(O)c(Cc3ccccc3)c2OC1c1ccc(O)c(O)c1)c1cc(O)c(O)c(O)c1` (centres unmarked) [Compound 16]: in assay [1] (setting [7]), the IC50 is 0.59 µM.
Turning to `COc1cc([C@@H]2c3cc4c(cc3[C@@H](O[C@@H]3O[C@@H]5CO[C@@H](C)O[C@H]5[C@H](O)[C@H]3O)[C@H]3COC(=O)[C@H]23)OCO4)cc(OC)c1O` [VP-16, reference compound], in the assay with VA-13 cells, the “apoptotic cells (p85 cleaved PARP)” value is on record as 92%.
